`CN(C)c1cc2[nH]c(C3CCCCC3)nc2cc1N` had a melting point of 135 to 137 °C. With `CN(C)c1cc2[nH]c(C3CCCCC3)nc2cc1NC(=O)c1ccc(OC(F)F)cc1` the figure was 183 to 185 °C; with `CN(C)c1cc2[nH]c(C3CCCCC3)nc2cc1NC(=O)c1ccc(F)cc1`, 196 to 197 °C; with `COc1cccc(C(=O)Nc2cc3nc(C4CCCCC4)[nH]c3cc2N(C)C)c1OC`, 173 to 174 °C.

As a reminder, the melting point is the temperature, or range, at which the solid turns liquid.

The record behind these values is patent US9845296B2 (dated 2017).
